Experimental data: patent publication US6681132B1, “Sodium magnetic reasonance imaging used in diagnosing tumors and assessing response to treatment” (The Trustees of Columbia University in the City of New York, priority 1999, dated 2004)
Entries after “also recorded” stand apart in the source; their conditions may differ.

What was measured:
[1] = system: carcinogen (MNU) induced breast tumor; test: Weighted and non-weighted sodium MRI of carcinogen (MNU) induced breast tumor; assay type: in vivo, Sprague Dawley rat; conditions: rat
Experimental: In another example, a breast cancer tumor is imaged in an animal model. This image verifies that the imaging diagnostic described herein responds to the treatment of a different animal model when using a different tissue type as the neoplastic target. The tumor was induced by injecting a Sprague Dawley rat with carcinogen MNU. When the tumor was palpable and measured in excess of 5 mm in diameter, the rat was imaged using weighting and non-weighting pulse sequences. One rat was given a 3 mg intra venous injection of taxotere and a second was given a 6 mg injection of taxotere. […] Both the images became brighter, with the most dramatic proportional change occurring in the weighted image.

[2] = system: LNCaP tumor; test: Na SQ and TQ line profiles of LNCaP tumor in vivo; conditions: 18 hours after i.v. injection of 1 mg in the femoral vein
Experimental: After preliminary studies, experiments were performed where proton, Na SQ and Na TQ images and line profiles were acquired at baseline and following bolus i.v. injection of chemotherapy. Imaging results for a LNCaP tumor in vivo, both at baseline and 18 hours after i.v. injection of 1 mg of taxotere in the femoral vein were examined.

[3] = human single loading doses; cited from earlier work
[4] = system: mouse; conditions: in vivo; cited from earlier work

## CC(=O)O[C@@]12CO[C@@H]1C[C@H](O)[C@@]1(C)C(=O)[C@H](O)C3=C(C)[C@@H](OC(=O)[C@H](O)[C@@H](NC(=O)OC(C)(C)C)c4ccccc4)C[C@@](O)([C@@H](OC(=O)c4ccccc4)[C@H]21)C3(C)C [taxotere]
[1]; 3 mg intra venous injection
  response of sodium MR images to treatment: Only the latter showed a response
[1]; 6 mg intravenous injection
  response of sodium MR images to treatment: showed a response; also recorded: become brighter after the treatment
[2]
  change of SQ line profile: did not significantly vary
  change of TQ line profiles: substantial increase
[3]
  peak plasma level: about 5 μMol/L
  plasma level for the first 9.6 hrs: > 50 nmol/L
  plasma level for the first 25 hrs: > 10 nmol/L
[4]
  reported toxic mouse dose: 4.5 mg
